Series [1] has as its system multidrug resistant strain of Plasmodium yoelii Nigeriensis. Kind of series: Antimalarial activity against multidrug resistant P. yoelii in Swiss mice (4-day treatment, observed till day 28). Type of series: in vivo. Particulars: Swiss mice. The protocol:
The antimalarial activity of the test compounds was evaluated in rodent using multidrug resistant strain of Plasmodium yoelii Nigeriensis in Swiss mice.
Random bred Swiss mice of either sex (20±2 gm) were inoculated intraperitoneally with 1×10^5 P. yoelii (MDR) parasites on day zero. Treatments with test compounds were administered to group of 5 mice each at different dose levels ranging between 12–96 mg/kg/day. Treatment was administered in groundnut oil intramuscularly and orally for 4 consecutive days (day 0–3). Blood smears from experimental mice were observed on day 4 and 7, day 10 and thereafter at regular intervals till day 28 or death of animal. Parasitaemia level on day 4 was compared with vehicle control group and percent suppression of parasitaemia in treated groups was calculated. […] The dose at which no parasitaemia develop during the observation period was reported as curative dose.

[2] abbreviates: 24 mg/kg/day, oral, day 0-3, in groundnut oil, 24 mg/kg/day.
The mark [3] stands for this setting: 48 mg/kg/day, oral, day 0-3, in groundnut oil.
Setting [4] is: 48 mg/kg/day, oral, day 0-3, 48 mg/kg/day.
The mark [5] stands for this setting: Plasmodium yoelii, po, 96 h, oral, day 0-3, in groundnut oil, read-out: % Suppression on Day 4.
The mark [6] stands for this setting: Plasmodium yoelii, po, 672 h, oral, day 0-3, read-out: Mice alive on day-28 (converted).

The results in this text go back to patent US7071226B1, “Amino-functionalized 1,2,4-trioxanes useful as antimalarial agents and process for preparation thereof” (Council of Scientific and Industrial Research, priority 2004, dated 2006).

The structures appear in SMILES notation. Where two headings read alike, the source gives them in different places.

A word on the melting point: it is the temperature of the solid-liquid transition.

`C=C(c1ccccc1)C1COC2(CCC(Nc3ccc(F)cc3)CC2)OO1` (stereo not shown) displayed a melting point of 130 to 132 °C.

With `C=C(c1ccc(Cl)cc1)C1COC2(CCC(Nc3ccc4c(c3)-c3ccccc3C4)CC2)OO1` (stereo not shown), the melting point fell in the range of 166 to 168 °C.

The molecule `C=C(c1ccc(OC)cc1)C1COC2(CCC(Nc3ccc(OC)cc3)CC2)OO1` (stereo not shown) displayed a melting point of 123 to 124 °C.

For the molecule `C=C(c1ccc(C)cc1)C1COC2(CCC(Nc3cc(Cl)cc(Cl)c3)CC2)OO1` (stereo not shown) [Compound 4ed, (3,5-Dichloro-Phenyl)-[3-(1-Tolyl-Vinyl)-1,2,5-Trioxa-Spiro[5.5]undec-9-yl]-Amine], the “Mice alive on day-28” value in series [1] (24 mg/kg/day, oral, day 0-3) is reported as 0/5; in series [1] (setting [4]), 4/5. The “% Suppression on Day 4” value in series [1] (setting [2]) is reported as 95%; in series [1] (setting [3]), 100%.

Turning to `C=C(c1ccc(C)cc1)C1COC2(CCC(Nc3cc(Cl)cc(Cl)c3)CC2)OO1` (stereo not shown) [Compound 4ee, (3,5-Dichloro-Phenyl)-[3-(1-Tolyl-Vinyl)-1,2,5-Trioxa-Spiro[5.5]undec-9-yl]-Amine], the “Mice alive on day-28” value in series [1] (24 mg/kg/day, oral, day 0-3) was 0/5; in series [1] (setting [4]), 2/5. The “% Suppression on Day 4” value in series [1] (setting [2]) stood at 81%; in series [1] (setting [3]), 100%.

Turning to `C=C(c1ccc(C)cc1)C1COC2(CCC(Nc3cccc4ccccc34)CC2)OO1` (stereo not shown) [Compound 4eg, Naphthalen-1-yl-[3-(1-p-Tolyl-Vinyl)-1,2,5-Trioxa-Spiro[5.5]undec-9-yl]-Amine], in series [1] (setting [5]), the inhibition in vivo at 96 mg/kg/day came to 100%. In addition, in series [1] (setting [6]), the responders at 96 mg/kg/day was 100%.

As for `C=C(c1ccc(C)cc1)C1COC2(CCC(Nc3ccc(-c4ccccc4)cc3)CC2)OO1` (stereo not shown) [Compound 4ej, Biphenyl-4-yl-[3-(1-p-tolyl-vinyl)-1,2,5-trioxa-spiro[5.5]undec-9-yl]-amine], the inhibition in vivo at 96 mg/kg/day stood at 69% in series [1] (Plasmodium yoelii, im, 96 h, im, day 0-3, in groundnut oil, read-out: % Suppression on Day 4) and 100% in series [1] (setting [5]). Moreover, the responders at 96 mg/kg/day in series [1] (Plasmodium yoelii, im, 672 h, im, day 0-3, read-out: Mice alive on day-28 (converted)) is 0%; in series [1] (setting [6]) it was 100%. Moreover, the inhibition in vivo at 48 mg/kg/day in series [1] (Plasmodium yoelii, po, 96 h, 48 mg/kg/day, oral, day 0-3, in groundnut oil, read-out: % Suppression on Day 4) came to 100%. Also, the responders at 48 mg/kg/day in series [1] (Plasmodium yoelii, po, 672 h, 48 mg/kg/day, oral, day 0-3, read-out: Mice alive on day-28 (converted)) was 40%.

Consider `C=C(c1ccc(C)cc1)C1COC2(CCC(Nc3cccc(C(F)(F)F)c3)CC2)OO1` (stereo not shown) [Compound 4en, [3-(1-p-Tolyl-vinyl)-1,2,5-trioxa-spiro[5.5]undec-9-yl]-(3-trifluoromethyl-phenyl)-amine], for which, in series [1] (setting [5]), the inhibition in vivo at 96 mg/kg/day stood at 100%. Also, the responders at 96 mg/kg/day in series [1] (setting [6]) is 60%.

Take `CCO[C@H]1O[C@@H]2O[C@@]3(C)CC[C@H]4[C@H](C)CC[C@@H]([C@H]1C)[C@@]24OO3` [β-Arteether, reference compound]: the “Mice alive on day-28” value in series [1] (24 mg/kg/day, oral, day 0-3) was 1/5; in series [1] (48 mg/kg/day, oral, day 0-3) it was 5/5. Moreover, the “% Suppression on Day 4” value in series [1] (24 mg/kg/day, oral, day 0-3, in groundnut oil) was 100%; in series [1] (setting [3]), 100%.
